Source: paper PMC8185074, “Anchor extension: a structure-guided approach to design cyclic peptides targeting enzyme active sites” (Nature Communications, 2021)
Peptide text beside a SMILES is read from it.

Legend:
Format in all cases: biochemical
[1] = target: T1, HDAC6 (Homo sapiens, UniProt Q9UBN7); experiment: HDAC6 inhibition, full IC50 measurement (Reaction Biology; fluorogenic p53 peptide RHKK(Ac)AMC)
T1 construct: purchased Reaction Biology Corporation (assay run by the CRO)
T1 sequence (Q9UBN7 1-1215): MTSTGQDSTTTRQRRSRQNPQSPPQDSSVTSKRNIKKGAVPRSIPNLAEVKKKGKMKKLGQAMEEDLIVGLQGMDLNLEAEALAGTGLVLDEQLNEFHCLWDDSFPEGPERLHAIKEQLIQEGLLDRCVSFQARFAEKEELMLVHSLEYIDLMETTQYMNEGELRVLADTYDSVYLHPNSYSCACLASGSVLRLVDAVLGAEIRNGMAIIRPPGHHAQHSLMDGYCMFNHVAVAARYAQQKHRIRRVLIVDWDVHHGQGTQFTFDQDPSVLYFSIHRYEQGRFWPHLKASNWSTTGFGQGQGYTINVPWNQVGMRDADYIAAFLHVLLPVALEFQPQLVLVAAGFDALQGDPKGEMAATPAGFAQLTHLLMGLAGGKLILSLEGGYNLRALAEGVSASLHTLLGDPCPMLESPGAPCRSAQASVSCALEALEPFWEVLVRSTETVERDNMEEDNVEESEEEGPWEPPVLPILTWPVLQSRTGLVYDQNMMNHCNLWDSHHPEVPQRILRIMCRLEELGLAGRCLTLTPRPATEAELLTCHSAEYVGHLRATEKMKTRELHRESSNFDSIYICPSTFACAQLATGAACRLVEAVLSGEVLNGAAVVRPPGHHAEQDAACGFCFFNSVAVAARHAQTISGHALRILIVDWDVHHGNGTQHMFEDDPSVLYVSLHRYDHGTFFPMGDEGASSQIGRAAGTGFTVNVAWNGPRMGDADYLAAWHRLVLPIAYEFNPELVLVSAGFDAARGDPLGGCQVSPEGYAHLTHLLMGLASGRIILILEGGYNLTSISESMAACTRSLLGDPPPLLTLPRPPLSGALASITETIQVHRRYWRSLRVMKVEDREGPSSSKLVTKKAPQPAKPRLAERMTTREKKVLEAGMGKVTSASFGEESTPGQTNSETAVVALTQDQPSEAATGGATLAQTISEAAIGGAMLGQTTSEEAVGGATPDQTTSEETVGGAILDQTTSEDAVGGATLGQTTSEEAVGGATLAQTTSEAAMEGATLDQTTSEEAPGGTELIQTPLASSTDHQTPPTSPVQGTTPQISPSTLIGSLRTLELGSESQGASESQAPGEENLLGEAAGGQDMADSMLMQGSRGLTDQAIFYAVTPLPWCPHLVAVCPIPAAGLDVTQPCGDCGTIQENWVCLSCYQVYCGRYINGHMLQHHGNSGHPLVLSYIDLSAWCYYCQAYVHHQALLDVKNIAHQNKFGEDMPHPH
In short: (§1)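 Inhibitory peptides were acoustically dispensed with enzyme, then substrate added; 1 h at 30 °C. Developer stopped reaction; plateau endpoint fluorescence (360/460 nm) gave IC50.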

[2] = target: T2, HDAC3 (Homo sapiens, UniProt O15379); experiment: HDAC3 inhibition, full IC50 measurement (Reaction Biology; fluorogenic p53 peptide RHKK(Ac)AMC)
T2 construct: purchased Reaction Biology Corporation (assay run by the CRO)
In short: as §1

[3] = target: T3, HDAC2 (Homo sapiens, UniProt Q92769); experiment: Initial HDAC2 IC50 estimate (BPS Biosciences HDAC fluorogenic assay kit); conditions: Supplementary Dataset 2; read-out: HDAC2 activity (initial activity)
T3 construct: purchased Reaction Biology Corporation (assay run by the CRO)
In short: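 Inhibition measured by kit-based fluorogenic HDAC activity assays, with each point in duplicate or triplicate. Values come from a full 1 µM–100 pM series (1:10 steps) or are range estimates from just 20 nM and 200 nM.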

T2 sequence (O15379 whole entry): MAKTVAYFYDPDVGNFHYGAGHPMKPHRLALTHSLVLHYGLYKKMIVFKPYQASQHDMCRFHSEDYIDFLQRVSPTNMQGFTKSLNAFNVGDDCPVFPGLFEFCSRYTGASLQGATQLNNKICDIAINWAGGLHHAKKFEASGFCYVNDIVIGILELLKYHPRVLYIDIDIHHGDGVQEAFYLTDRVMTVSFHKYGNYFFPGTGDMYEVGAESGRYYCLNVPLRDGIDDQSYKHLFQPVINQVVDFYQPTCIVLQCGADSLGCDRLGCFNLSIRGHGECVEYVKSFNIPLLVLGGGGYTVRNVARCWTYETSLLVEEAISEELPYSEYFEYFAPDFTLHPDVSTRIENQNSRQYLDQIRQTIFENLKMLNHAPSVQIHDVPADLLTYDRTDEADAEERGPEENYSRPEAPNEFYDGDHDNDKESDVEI
T2 sequence (Q9Y618 395-489 partner limits assumed): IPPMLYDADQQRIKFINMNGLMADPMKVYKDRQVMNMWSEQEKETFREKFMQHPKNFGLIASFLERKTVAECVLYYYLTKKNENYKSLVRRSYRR
T3 sequence (Q92769 whole entry): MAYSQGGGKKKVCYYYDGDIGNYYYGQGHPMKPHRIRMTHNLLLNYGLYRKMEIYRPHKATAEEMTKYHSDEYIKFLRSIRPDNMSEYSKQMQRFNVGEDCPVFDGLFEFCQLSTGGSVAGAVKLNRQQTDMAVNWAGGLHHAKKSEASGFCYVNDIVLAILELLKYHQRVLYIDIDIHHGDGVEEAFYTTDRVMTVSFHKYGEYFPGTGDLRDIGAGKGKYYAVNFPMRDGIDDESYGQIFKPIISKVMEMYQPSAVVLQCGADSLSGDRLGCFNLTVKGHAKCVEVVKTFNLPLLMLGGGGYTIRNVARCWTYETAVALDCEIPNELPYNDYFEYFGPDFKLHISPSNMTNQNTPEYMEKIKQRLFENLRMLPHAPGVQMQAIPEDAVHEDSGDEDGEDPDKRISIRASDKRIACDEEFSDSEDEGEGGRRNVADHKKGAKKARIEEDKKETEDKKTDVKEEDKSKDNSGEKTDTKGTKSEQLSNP

N=C(N)NCCC[C@@H]1NC(=O)[C@H](Cc2c[nH]c3ccccc23)NC(=O)[C@H](CC(=O)O)NC(=O)[C@@H](CO)NC(=O)[C@H](Cc2c[nH]c3ccccc23)NC(=O)[C@H](CCCCCS)NC(=O)[C@H](CCC(N)=O)NC1=O [des4.1.0, SHA-Trp-dSer-Asp-Trp-Arg-Gln] (HELM PEPTIDE1{D.W.R.Q.[O=C([C@H](CCCCCS)N[*:1])[*:2]].W.[dS]}$PEPTIDE1,PEPTIDE1,1:R1-7:R2$$$V2.0)
HDAC6 activity raw data (signal) ([1]; Conc. 1.00E-05 M, t1): 7877 | HDAC6 activity raw data (signal) ([1]; Conc. 1.00E-05 M, t2): -8060 | HDAC6 activity raw data (signal) ([1]; Conc. 1.11E-06 M, t1): 16871 | HDAC6 activity raw data (signal) ([1]; Conc. 1.11E-06 M, t2): 12343 | HDAC6 activity raw data (signal) ([1]; Conc. 1.23E-07 M, t1): 204372 | HDAC6 activity raw data (signal) ([1]; Conc. 1.23E-07 M, t2): 163263 | HDAC6 activity raw data (signal) ([1]; Conc. 1.37E-08 M, t1): 1871464 | HDAC6 activity raw data (signal) ([1]; Conc. 1.37E-08 M, t2): 1633652 | HDAC6 activity raw data (signal) ([1]; Conc. 1.52E-09 M, t1): 2518833 | HDAC6 activity raw data (signal) ([1]; Conc. 1.52E-09 M, t2): 2655286 | HDAC6 activity raw data (signal) ([1]; Conc. 3.33E-06 M, t1): 8242 | HDAC6 activity raw data (signal) ([1]; Conc. 3.33E-06 M, t2): -3634 | HDAC6 activity raw data (signal) ([1]; Conc. 3.70E-07 M, t1): 49535 | HDAC6 activity raw data (signal) ([1]; Conc. 3.70E-07 M, t2): 45420 | HDAC6 activity raw data (signal) ([1]; Conc. 4.12E-08 M, t1): 772837 | HDAC6 activity raw data (signal) ([1]; Conc. 4.12E-08 M, t2): 534957 | HDAC6 activity raw data (signal) ([1]; Conc. 4.57E-09 M, t1): 2466106 | HDAC6 activity raw data (signal) ([1]; Conc. 4.57E-09 M, t2): 2168070 | HDAC6 activity raw data (signal) ([1]; Conc. 5.08E-10 M, t1): 2603168 | HDAC6 activity raw data (signal) ([1]; Conc. 5.08E-10 M, t2): 2401605 | HDAC3 activity raw data (signal) ([2]; Conc. 1.00E-05 M, t1): -1388 | HDAC3 activity raw data (signal) ([2]; Conc. 1.00E-05 M, t2): 157 | HDAC3 activity raw data (signal) ([2]; Conc. 1.11E-06 M, t1): 49544 | HDAC3 activity raw data (signal) ([2]; Conc. 1.11E-06 M, t2): 53052 | HDAC3 activity raw data (signal) ([2]; Conc. 1.23E-07 M, t1): 403506 | HDAC3 activity raw data (signal) ([2]; Conc. 1.23E-07 M, t2): 392664 | HDAC3 activity raw data (signal) ([2]; Conc. 1.37E-08 M, t1): 878874 | HDAC3 activity raw data (signal) ([2]; Conc. 1.37E-08 M, t2): 905094 | HDAC3 activity raw data (signal) ([2]; Conc. 1.52E-09 M, t1): 1051534 | HDAC3 activity raw data (signal) ([2]; Conc. 1.52E-09 M, t2): 1009763 | HDAC3 activity raw data (signal) ([2]; Conc. 3.33E-06 M, t1): 16525 | HDAC3 activity raw data (signal) ([2]; Conc. 3.33E-06 M, t2): 4898 | HDAC3 activity raw data (signal) ([2]; Conc. 3.70E-07 M, t1): 191695 | HDAC3 activity raw data (signal) ([2]; Conc. 3.70E-07 M, t2): 162137 | HDAC3 activity raw data (signal) ([2]; Conc. 4.12E-08 M, t1): 681441 | HDAC3 activity raw data (signal) ([2]; Conc. 4.12E-08 M, t2): 656036 | HDAC3 activity raw data (signal) ([2]; Conc. 4.57E-09 M, t1): 1007447 | HDAC3 activity raw data (signal) ([2]; Conc. 4.57E-09 M, t2): 1022661 | HDAC3 activity raw data (signal) ([2]; Conc. 5.08E-10 M, t1): 1094681 | HDAC3 activity raw data (signal) ([2]; Conc. 5.08E-10 M, t2): 1129520 | IC50 [3]: 100 nM
